This passage reports IC50 and Kb results from US20190152992A1, “BENZODIOXANE DERIVATIVES AND THEIR PHARMACEUTICAL USE” (Orion Corporation, priority 2016, published 2019).

A word on the IC50: it is the point on the concentration scale where inhibition reaches its midpoint.

For assay [1], the target named is T1, human alpha2A receptors (Homo sapiens, UniProt P08913).
T1 sequence (P08913 1-465): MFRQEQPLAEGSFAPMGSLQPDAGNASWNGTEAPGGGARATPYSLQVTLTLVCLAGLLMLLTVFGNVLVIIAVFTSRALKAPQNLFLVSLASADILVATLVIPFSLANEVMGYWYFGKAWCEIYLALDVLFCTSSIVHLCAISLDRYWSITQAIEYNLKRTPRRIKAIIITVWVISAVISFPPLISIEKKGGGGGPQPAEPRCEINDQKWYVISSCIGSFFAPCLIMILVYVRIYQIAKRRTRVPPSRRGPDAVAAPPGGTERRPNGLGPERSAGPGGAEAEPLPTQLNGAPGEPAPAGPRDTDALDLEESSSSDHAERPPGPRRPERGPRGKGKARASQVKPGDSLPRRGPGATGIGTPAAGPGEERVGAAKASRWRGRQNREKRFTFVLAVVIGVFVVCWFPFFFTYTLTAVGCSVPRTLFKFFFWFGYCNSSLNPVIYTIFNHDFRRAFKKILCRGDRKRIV
Particulars: for IC50: read-out: Alpha 2A Adrenaline IC50, antagonism, cells stimulated with adrenaline, CHO cells stably transfected with human alpha2A, cotransfected with Gα16, intracellular calcium; for Kb: read-out: Alpha 2A Adrenaline Kb, Kb calculated from IC50 with the Cheng-Prusoff equation, adrenaline as agonist, CHO cells, human alpha2A.

Assay [2] concerns the target T2, human alpha2C receptors (Homo sapiens, UniProt P18825).
T2 sequence (P18825 1-462): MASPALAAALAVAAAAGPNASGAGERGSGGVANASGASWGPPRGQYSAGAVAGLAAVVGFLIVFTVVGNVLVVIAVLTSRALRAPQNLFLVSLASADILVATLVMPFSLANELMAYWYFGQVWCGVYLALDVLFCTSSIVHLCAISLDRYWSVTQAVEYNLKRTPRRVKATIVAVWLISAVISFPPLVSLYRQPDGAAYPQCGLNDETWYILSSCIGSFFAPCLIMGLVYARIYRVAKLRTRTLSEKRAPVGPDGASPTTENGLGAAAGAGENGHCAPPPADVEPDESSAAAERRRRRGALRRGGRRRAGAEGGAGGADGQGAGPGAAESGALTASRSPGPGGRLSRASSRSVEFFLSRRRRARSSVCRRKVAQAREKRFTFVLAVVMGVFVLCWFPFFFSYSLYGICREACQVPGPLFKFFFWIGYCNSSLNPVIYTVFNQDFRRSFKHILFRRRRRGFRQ
The experiment in a line: Determination of alpha2C antagonistic activity in vitro (FLIPR calcium assay). Particulars: for Kb: Kb calculated from IC50 with the Cheng-Prusoff equation, adrenaline as agonist, CHO cells, human alpha2C.

Assay [3] concerns the target T1, human alpha2A receptors. The experiment in a line: cell-based.
Where [4] appears, read: read-out: Alpha 2C Adrenaline IC50, antagonism, cells stimulated with adrenaline, CHO cells stably transfected with human alpha2C, cotransfected with Gα16, intracellular calcium.
The mark [5] stands for this setting: read-out: Alpha 2C Adrenaline Kb.

Read-outs that look alike come from different tables or passages of the source.

With `CC1CCN([C@H]2CCCN(C[C@H]3COc4ccccc4O3)C2)C1=O` (single isomer, unassigned; diastereomer 2) [example 99], the half-inhibitory concentration (IC50) in assay [1] was more than 10000 nM; in assay [2], 0.15 nM. Besides, the Kb in assay [1] was more than 449 nM; in assay [2] (Alpha 2C Adrenaline Kb), 0.02 nM.
In the case of `O=C1NCCCN1[C@H]1CCCN(C[C@H]2COc3ccccc3O2)C1` [compound 53, 1-((S)-1-(((S)-2,3-Dihydrobenzo[b][1,4]dioxin-2-yl)methyl)piperidin-3-yl)tetrahydropyrimidin-2(1H)-one], the figures for the IC50 in assay [1] and in assay [2] (setting [4]) were more than 10000 nM and 1.04 nM, respectively. The Kb in assay [1] was more than 449 nM; in assay [2] (setting [5]), 0.105 nM.
As to `CCc1nc2cccnc2n1[C@H]1CCCN(C[C@H]2COc3ccccc3O2)C1` [example 159, 3-((S)-1-(((S)-2,3-Dihydrobenzo[b][1,4]dioxin-2-yl)methyl)piperidin-3-yl)-2-ethyl-3H-imidazo[4,5-b]pyridine], the IC50 in assay [2] was 0.01 nM; in assay [3], more than 10000 nM. In addition, the Kb was 0.001 nM in assay [2] (Alpha 2C Adrenaline Kb) and more than 449 nM in assay [3].
On the same counts, the results for `Cc1nc2cncnc2n1[C@H]1CCCN(C[C@H]2COc3ccccc3O2)C1` [example 160, 9-((S)-1-(((S)-2,3-Dihydrobenzo[b][1,4]dioxin-2-yl)methyl)piperidin-3-yl)-8-methyl-9H-purine] are 0.15 nM, more than 10000 nM, 0.016 nM and more than 449 nM.
On to `c1ccc2c(c1)OC[C@H](CN1CCC[C@H](n3cnc4cncnc43)C1)O2` [example 161, 9-((S)-1-(((S)-2,3-Dihydrobenzo[b][1,4]dioxin-2-yl)methyl)-piperidin-3-yl)-9H-purine], for which the results for the concentration for half-maximal inhibition (IC50) in assay [2] and in assay [3] were 0.294 nM and more than 10000 nM, respectively. In addition, the Kb in assay [2] (Alpha 2C Adrenaline Kb) was 0.03 nM; in assay [3], more than 449 nM.
With `CC1(C)CCN([C@H]2CCCN(C[C@H]3COc4ccccc4O3)C2)S1(=O)=O` [example 162, 2-((S)-1-(((S)-2,3-Dihydrobenzo[b][1,4]dioxin-2-yl)methyl)piperidin-3-yl)-5,5-dimethylisothiazolidine 1,1-dioxide], the IC50 in assay [2] is 6.13 nM; in assay [3] it was more than 10000 nM. The results for the Kb in assay [2] (Alpha 2C Adrenaline Kb) and in assay [3] were 0.62 nM and more than 449 nM, respectively.
In the case of “(R)-1-((S)-1-(((S)-2,3-Dihydrobenzo[b][1,4]dioxin-2-yl)methyl)piperidin-3-yl)-3-methyl-3-phenylpyrrolidine-2,5-dione and (S)-1-((S)-1-(((S)-2,3-dihydrobenzo[b][1,4]dioxin-2-yl)methyl)piperidin-3-yl)-3-methyl-3-phenylpyrrolidine-2,5-dione [example 36]”, the IC50 in assay [1] amounted to 1560 nM; in assay [2] (setting [4]), 0.908 nM. Further, the values for the Kb in assay [1] and in assay [2] (setting [5]) were 70 nM and 0.091 nM, respectively.
